Assay results published in patent publication US12642796B2, “Method and device of treating chronic kidney disease-associated pruritus” (Avior, Inc., priority 2018, dated 2026).
Several values for one entry are separate records, joined by “and”; a condition that tells them apart may be missing. Equal entries are not always repeated.

Key:
Type in all cases: in vivo, mouse
C57BL mice [1] = assay: Intradermal injection of SP in mice, scratching behavior at the injection site (Example 1)
Text: The method of treatment of pruritus was established using C57BL mice where substance P (SP) induced pruritus was created to induce the disease state.
Healthy male C57BL/6 mice ˜6-8 weeks of age and ranging from 21.2 to 26.8 grams in weight at study initiation were used in the Examples. The mice were acclimated for a minimum of 5 days prior to the beginning of the study. The mice were identified by tail mark and cage label. The study was not blinded. Mice were fed species-specific food, and food and water were supplied ad libitum to the animals.
Male C57BL mice were given an intradermal (ID) injection of 0.0168 μg of SP (N=4, Group 1) or PBS (N=2, Group 2) on either the right side only or on both sides. Scratching behavior at the injection site was monitored for 30 minutes from time of injection by two separate observers.
The original dose of 0.0168 μg SP (Group 1) was compared to a higher dose of 33.7 μg SP (N=4, Group 3). […] It was therefore concluded that the scratching behavior was a direct response to the presence and amount of SP.

C57BL mice [2] = assay: SP injection, scratches Groups 7-9, 0-30 minutes (Example 3)
Procedure: […] […] Group 9 (N=4) received SP in PBS at a dose of 0.5 mM/50 μL. Various scratching behavior was video recorded and assessed.
Group 7: All mice were placed in a clear cylindrical enclosure 30 minutes prior to testing to acclimate. An ID bolus injection of SP in sodium acetate was administered.
Groups 8 and 9: All mice were placed in a clear cylindrical enclosure 30 minutes prior to testing to acclimate. An ID bolus injection of SP in PBS was administered. Recording began immediately following injection of SP and recorded for 30 minutes.
Animals in Groups 7-9 were acclimated for […] prior to recording. Behavioral recording lasted for 30 minutes (T0-T30).
The number of scratches per 0-30 minutes for Groups 7-9 is given below in Table 2. The numbers for Groups 7 and 8 were averaged together.

C57BL/6 mice [3] = assay: SP and nalmefene injection, scratches Groups 10-12, 0-60 minutes (Example 3)
Procedure: Fifteen male C57BL/6 mice received a single intradermal (ID) bolus injection of substance P (SP) or PBS. Group 10 (N=6) received a single 50 μL injection of PBS. Group 11 (N=4) received SP in PBS at a dose of 0.5 mM/50 μl. […] Scratching behavior was video recorded and assessed.
Groups 10 and 11: All mice were placed in a clear cylindrical enclosure 60 minutes prior to testing to acclimate. An ID bolus injection of SP in PBS was administered. Recording began immediately following injection of SP and recorded for 60 minutes.
Group 12: All mice were placed in clear cylinder enclosures for 60 minutes prior to testing to acclimate. A SC bolus injection of nalmefene was administered. 30 minutes after the nalmefene injection, an ID bolus injection of SP in PBS was administered. Recording began immediately following injection of SP and recorded for 60 minutes.
Animals in Groups 10-12 were acclimated for 1 hour prior to recording. Behavioral recording lasted for 60 minutes (T0-T60). 6 animals were dosed for Group 12 but only 5 animals were tested due to one animal being excluded as an outlier due to no response to SP injection.
The number of scratches per 10-minute time interval for Groups 10-12 is given below in Table 3. The data is also shown graphically in FIG. 4.
The number of scratches per 0-30 minute and 30-60 minute time intervals is given below in Table 4 for Group 10 (PBS), Group 11 (0.5 mM SP), and Group 12 (0.75 mg nalmefene). The data is also shown graphically in FIG. 5.

C57BL/6 mice [4] = assay: Dose escalation of SP, mean scratch count (Example 4)
Procedure: The SP dose administered to male C57BL/6 mice was escalated and itching was recorded for analysis. Group 13 (N=8) received ID injection of 135 μg SP on the right side of the rostral back. Group 14 (N=8) received ID injection of 233 μg SP on the right side of the rostral back. At T0-60, immediately following dose administration, a camera began recording to monitor itching behavior. At T60, the final itching assessment was completed, camera recording ended, and the study was concluded.
The recordings were reviewed to calculate itching behavior. Two research associates reviewed the recordings and counted the number of scratches for each mouse during the 60-minute collection time. The mean of the two observations were recorded as the number of scratches per 60 minutes.
The scratching over time was observed per 10 minute time period for each animal tested. The data is set forth below in Table 6 and is shown graphically in FIG. 6.

[5] = 250 mM SP ID, Groups 7 and 8 averaged together
[6] = Group 11, SP 0.5 mM/50 μL ID, 0-10 min
[7] = Group 11, SP 0.5 mM/50 μL ID, 10-20 min
[8] = Group 11, SP 0.5 mM/50 μL ID, 20-30 min
[9] = Group 11, SP 0.5 mM/50 μL ID, 30-40 min
[10] = Group 11, SP 0.5 mM/50 μL ID, 40-50 min
[11] = Group 11, SP 0.5 mM/50 μL ID, 50-60 min
[12] = Group 13, 135 μg SP ID, 0-10 min
[13] = Group 13, 135 μg SP ID, 10-20 min
[14] = Group 13, 135 μg SP ID, 20-30 min
[15] = Group 13, 135 μg SP ID, 30-40 min
[16] = Group 13, 135 μg SP ID, 40-50 min
[17] = Group 13, 135 μg SP ID, 50-60 min
[18] = Group 14, 233 μg SP ID, 0-10 min
[19] = Group 14, 233 μg SP ID, 10-20 min
[20] = Group 14, 233 μg SP ID, 20-30 min
[21] = Group 14, 233 μg SP ID, 30-40 min
[22] = Group 14, 233 μg SP ID, 40-50 min
[23] = Group 14, 233 μg SP ID, 50-60 min

SP: neuropeptide that plays a role in the induction and maintenance of pruritus; injected intradermally to induce scratching
local site scratching behavior (C57BL mice [1]; 0.0168 μg SP ID vs PBS-injected mice, 30 minutes from injection, FIG. 2a): more frequent
scratching in mice, higher vs lower SP dose (C57BL mice [1]; 33.7 μg SP vs 0.0168 μg SP, FIG. 2b): increased scratching
Scratches, Facial, Avg. (C57BL mice [2]; [5]): 110
Scratches, Facial, individual animals (C57BL mice [2]; [5]): 110 and 139 and 137 and 54
Scratches, Left Side, Avg. (C57BL mice [2]; [5]): 39
Scratches, Left Side, individual animals (C57BL mice [2]; [5]): 1 and 69 and 4 and 82
Scratches, Other, Avg. (C57BL mice [2]; [5]): 38
Scratches, Other, individual animals (C57BL mice [2]; [5]): 38 and 45 and 43 and 26
Scratches, Rt. Side, Avg. (C57BL mice [2]; [5]): 12.5
Scratches, Rt. Side, individual animals (C57BL mice [2]; [5]): 0 and 36 and 4 and 10
Scratches, Facial, Avg. (C57BL mice [2]; SP 0.5 mM ID (Group 9)): 29.75
Scratches, Facial, individual animals (C57BL mice [2]; SP 0.5 mM ID (Group 9)): 5 and 20 and 48 and 46
Scratches, Left Side, Avg. (C57BL mice [2]; SP 0.5 mM ID (Group 9)): 12
Scratches, Left Side, individual animals (C57BL mice [2]; SP 0.5 mM ID (Group 9)): 15 and 22 and 11 and 0
Scratches, Other, Avg. (C57BL mice [2]; SP 0.5 mM ID (Group 9)): 21
Scratches, Other, individual animals (C57BL mice [2]; SP 0.5 mM ID (Group 9)): 7 and 27 and 35 and 15
Scratches, Rt. Side, Avg. (C57BL mice [2]; SP 0.5 mM ID (Group 9)): 16.75
Scratches, Rt. Side, individual animals (C57BL mice [2]; SP 0.5 mM ID (Group 9)): 28 and 7 and 13 and 19
Scratches, Avg. (C57BL/6 mice [3]; Group 11, SP 0.5 mM, 0-30 min): 87.5
Scratches, individual animals (C57BL/6 mice [3]; Group 11, SP 0.5 mM, 0-30 min): 119 and 67 and 94.5 and 69.5
Scratches, Avg. (C57BL/6 mice [3]; Group 11, SP 0.5 mM, 30-60 min): 8.38
Scratches, individual animals (C57BL/6 mice [3]; Group 11, SP 0.5 mM, 30-60 min): 19.5 and 5.5 and 2.5 and 6
Scratches, Avg. (C57BL/6 mice [3]; [6]): 53.75
Scratches, individual animals (C57BL/6 mice [3]; [6]): 57.5 and 66 and 49 and 42.5
Scratches, Avg. (C57BL/6 mice [3]; [7]): 28
Scratches, individual animals (C57BL/6 mice [3]; [7]): 41.5 and 1 and 45 and 24.5
Scratches, Avg. (C57BL/6 mice [3]; [8]): 5.75
Scratches, individual animals (C57BL/6 mice [3]; [8]): 20 and 0 and 0.5 and 2.5
Scratches, Avg. (C57BL/6 mice [3]; [9]): 6
Scratches, individual animals (C57BL/6 mice [3]; [9]): 15.5 and 0 and 2.5 and 6
Scratches, Avg. (C57BL/6 mice [3]; [10]): 0
Scratches, individual animals (C57BL/6 mice [3]; [10]): 0
Scratches, Avg. (C57BL/6 mice [3]; [11]): 2.38
Scratches, individual animals (C57BL/6 mice [3]; [11]): 4 and 5.5 and 0 (2×)
Mean Scratch Count, Avg. (C57BL/6 mice [4]; [12]): 56.75
Mean Scratch Count, individual animals (C57BL/6 mice [4]; [12]): 127 and 58 and 5.5 and 22 and 57 and 21.5 and 91 and 72
Mean Scratch Count, Avg. (C57BL/6 mice [4]; [13]): 26.44
Mean Scratch Count, individual animals (C57BL/6 mice [4]; [13]): 53.5 and 41.5 and 0 and 7 and 36 and 23 and 41 and 9.5
Mean Scratch Count, Avg. (C57BL/6 mice [4]; [14]): 8.88
Mean Scratch Count, individual animals (C57BL/6 mice [4]; [14]): 0 (2×) and 4 and 7 and 2 and 12.5 and 22.5 and 23
Mean Scratch Count, Avg. (C57BL/6 mice [4]; [15]): 3.69
Mean Scratch Count, individual animals (C57BL/6 mice [4]; [15]): 0 (4×) and 15 and 0.5 and 12 and 2
Mean Scratch Count, Avg. (C57BL/6 mice [4]; [16]): 1.06
Mean Scratch Count, individual animals (C57BL/6 mice [4]; [16]): 0 (6×) and 5 and 3.5
Mean Scratch Count, Avg. (C57BL/6 mice [4]; [17]): 0.31
Mean Scratch Count, individual animals (C57BL/6 mice [4]; [17]): 0 (6×) and 2 and 0.5
Mean Scratch Count, Avg. (C57BL/6 mice [4]; [18]): 89.88
Mean Scratch Count, individual animals (C57BL/6 mice [4]; [18]): 123 and 131.5 and 108 and 85.5 and 8 and 33 and 145 and 85
Mean Scratch Count, Avg. (C57BL/6 mice [4]; [19]): 30.06
Mean Scratch Count, individual animals (C57BL/6 mice [4]; [19]): 56.5 and 32 and 42 and 33 and 6 and 9 and 35 and 27
Mean Scratch Count, Avg. (C57BL/6 mice [4]; [20]): 13.94
Mean Scratch Count, individual animals (C57BL/6 mice [4]; [20]): 7 and 6 and 27 and 21.5 and 5 and 10.5 and 16 and 18.5
Mean Scratch Count, Avg. (C57BL/6 mice [4]; [21]): 5.19
Mean Scratch Count, individual animals (C57BL/6 mice [4]; [21]): 0 (2×) and 3 and 5 (2×) and 16.5 and 8 and 4
Mean Scratch Count, Avg. (C57BL/6 mice [4]; [22]): 3.56
Mean Scratch Count, individual animals (C57BL/6 mice [4]; [22]): 3 and 0 (3×) and 4 and 7.5 and 1 and 13
Mean Scratch Count, Avg. (C57BL/6 mice [4]; [23]): 6.31
Mean Scratch Count, individual animals (C57BL/6 mice [4]; [23]): 8 and 0 (2×) and 2 and 33 and 1 (2×) and 5.5
